Results as given in paper PMC5244253, “Phloretin Attenuates Listeria monocytogenes Virulence Both In vitro and In vivo by Simultaneously Targeting Listeriolysin O and Sortase A” (Frontiers in Cellular and Infection Microbiology, 2017).
In brackets after ≈: the same amount, converted by molar mass. Like-named read-outs stand apart in the source and are kept apart here.

Experiments:
L. monocytogenes [1] = conditions: cited from earlier work
listeriolysin O (LLO) = target: T1, listeriolysin O (LLO) (Listeria monocytogenes serovar 1/2a, UniProt P13128); assay: Hemolysis assay of L. monocytogenes culture supernatants; type: cell-based
T1 construct: endogenous in cells; host or cells: L. monocytogenes EGDe wild-type strain BUG 1600
Description: Overnight cultures of EGDe were enlarged and cultured into fresh TSB (1:100) at 37°C for 2 h with shaking and then treated with various concentrations of phloretin until the optical density (OD) at 600 nm reached 2.0, at which point they were harvested (8000 g, 5 min). The bacterial culture supernatants were incubated with rabbit erythrocytes (final concentration of 2.5%) in PBS (35 mM Na3PO4, 125 mM NaCl, 0.5 mg/mL BSA, pH 5.5) at 37°C for 30 min, and then the hemolytic activity of each sample was determined by measuring the release of hemoglobin in supernatants at an OD of 543 nm after centrifugation (8000 g, 1 min).
To examine the direct effect of phloretin on hemolysis induced by bacterial culture supernatants, the hemolytic activities of bacterial culture supernatants pre-incubated with various concentrations of phloretin were determined as described above.

LLO = type: cell-based, Listeria monocytogenes
hly = assay: Agar assay and β-galactosidase activity analysis (phly-lacZ); type: cell-based, Listeria monocytogenes; conditions: phly-lacZ-containing bacteria; agar assay 0–116.68 μM and β-galactosidase activity
Description: The phly-lacZ plasmid was a kind gift from Dr. Birgitte Kallipolitis (University of Southern Denmark) and was electroporated into EGDe cells to perform an agar assay as described previously (Kastbjerg et al., [2010]). A 25-ml aliquot of TSB agar was melted at 44°C and supplemented with X-gal (150 μg/ml) and kanamycin (50 μg/ml) before being thoroughly mixed with 1 ml of an overnight culture of bacteria containing the phly-lacZ plasmid. Nine wells were made per plate following desiccation in Class II biosafety cabinet at room temperature. A 30-μl aliquot of phloretin or benzalkonium bromide at varying concentrations was added to each well. The plates were incubated for 48 h at 37°C. The β-galactosidase activities of the phly-lacZ-containing bacteria treated with various concentrations of phloretin were quantitatively determined as previously described (Larsen et al., [2006]).

T90A = target: T2, T90A (Listeria monocytogenes serovar 1/2a, UniProt Q8Y8H5, T162A); assay: Fluorescence-quenching binding constant (T90A); conditions: fluorescence-quenching spectroscopy, read-out: binding constant KA (converted)
T2 construct: GST (inferred from vector pGEX-6P-1) (N); made in house
Description: (§1) The binding constant (KA) for phloretin with SrtA was measured using a fluorescence-quenching method. A 280-nm excitation wavelength with a 5-nm band-pass and a 345-nm emission wavelength with a 10-nm band-pass were used for the measurements. The details of the protocol used to perform the measurements were as previously described (Bandyopadhyay et al., [2002]; Jurasekova et al., [2009]).

I103A = target: T3, I103A (Listeria monocytogenes serovar 1/2a, UniProt Q8Y8H5, I175A); assay: Fluorescence-quenching binding constant (I103A); conditions: fluorescence-quenching spectroscopy, read-out: binding constant KA (converted)
T3 construct: GST (inferred from vector pGEX-6P-1) (N); made in house
Description: as §1

V129A = target: T4, V129A (Listeria monocytogenes serovar 1/2a, UniProt Q8Y8H5, V201A); assay: Fluorescence-quenching binding constant (V129A); conditions: fluorescence-quenching spectroscopy, read-out: binding constant KA (converted)
T4 construct: GST (inferred from vector pGEX-6P-1) (N); made in house
Description: as §1

[2] = tested on: L. monocytogenes invasion into Caco-2 cells; assay: L. monocytogenes invasion into Caco-2 cells (CFU assay, immunostaining); type: cell-based, Listeria monocytogenes; conditions: EGDeΔsrtA co-treated or pre-treated with phloretin; Caco-2, 1 h
Description: (§2) The Caco-2 cell line was maintained in RPMI-1640 medium with 10% fetal bovine serum, non-essential amino acids and antibiotics in a humidified atmosphere at 37°C with 5% CO2. The cells were routinely adjusted to a concentration of 3 × 10^5 cells per ml, seeded into 24-well plastic culture microplates (3 × 10^5 per microplate) and cultured for 48 h for immunostaining and the determination of intracellular bacterial growth. To assay LDH release, cell monolayers were incubated overnight in culture medium without antibiotics in 96-well plates (2 × 10^4 cells per well).
Caco-2 cells were co-cultured with L. monocytogenes at an MOI of 100. […] In each case, gentamicin (20 μg/ml) was added 30 min after bacterial internalization.
A 0.3% concentration of Triton X-100 was added to permeabilize the cells for 4 min prior to stain the total bacteria (intracellular + extracellular) with a rabbit L. monocytogenes-specific antibody (Abcam) and an Alexa Fluor 488-conjugated chicken anti-rabbit antibody (Molecular Probes).

[3] = tested on: L. monocytogenes-induced cytotoxicity in Caco-2 cells; assay: LDH release assay of infected Caco-2 cells; type: cell-based, Listeria monocytogenes; conditions: all phloretin-treated groups vs infected untreated control; 5 h, MOI 100
Description: as §2
Caco-2 cells grown in 96-well microplates were infected with L. monocytogenes pre-exposed or not to phloretin at a multiplicity of infection (MOI) of 100. Following infections with discriminatory concentrations of phloretin for 5 h, the LDH released into the supernatants of the co-culture system was determined using a Cytotoxicity Detection Kit (LDH; Roche, Basel, Switzerland) as previously described (Wang et al., [2015a]).

Caco-2 cells = assay: Cytotoxicity of phloretin in Caco-2 cells; type: cell-based; conditions: phloretin treatment alone
L. monocytogenes [4] = assay: Mouse model of L. monocytogenes infection; type: in vivo, BALB/c mice
Description: Female 6- to 8-week-old BALB/c mice were purchased from Liao Ning Chang Sheng Biotechnology Co., LTD. The mice used for the experiments were housed and handled in accordance with the guidelines established by the United States National Institutes of Health. These studies were reviewed and approved by the Institutional Animal Care and Use Committee of Jilin University.
(§3) Overnight cultures of L. monocytogenes were enlarged by culturing into fresh TSB (1:100) at 37°C with shaking until the OD at 600 nm reached 1.0, at which point they were harvested. The cell pellets were washed and suspended in normal saline. To establish an infection model, 200 μL prepared bacterial suspension (1 × 10^8 CFU/ml) was intraperitoneally inoculated into BALB/c mice. The infected mice in the treatment group were subcutaneously administered 150 mg/kg of phloretin 2 h after infection and again at 8-h intervals. The infected mice in the […] group were injected with an equal volume of dimethyl sulfoxide (DMSO) at the same time points. Finally, a group of healthy mice received only phloretin to examine the toxicity of the drug. Each group had 10 mice, and the therapeutic trial lasted for 96 h; survival statistics were collected throughout this period.
(§4) For histopathologic analysis, the mice were euthanized with anesthesia following cervical dislocation at 48 h post-infection. Liver and spleen tissues were removed, fixed with formalin, embedded in paraffin, stained with hematoxylin and eosin and visualized by light microscopy. To analyze the bacterial burden in tissue, the liver and spleen tissues collected from the sacrificed mice were weighed, lysed in 2% Triton X-100 and inoculated onto TSB agar plates at 37°C overnight.

[5] = Toxicity of phloretin in healthy (uninfected) mice; type: in vivo, BALB/c mice
Description: as §3, §4

L. monocytogenes EGDe = assay: Susceptibility assays (MIC, growth curve)
WT-SrtA [6] = target: T5, WT-SrtA (Listeria monocytogenes serovar 1/2a, UniProt Q8Y8H5); assay: Sortase A enzyme activity inhibition assay (WT-SrtA)
Description: Following another incubation at 37°C for 1 h, the fluorescence intensity of each sample was determined at emission and excitation wavelengths of 350 and 520 nm, respectively, in a black 96-well plate.

WT-SrtA [7] = target: T5, WT-SrtA; assay: Fluorescence-quenching binding constant (WT-SrtA); parameters: GST (inferred from vector pGEX-6P-1) (N); made in house
Description: as §1

T5 sequence (Q8Y8H5 71-222): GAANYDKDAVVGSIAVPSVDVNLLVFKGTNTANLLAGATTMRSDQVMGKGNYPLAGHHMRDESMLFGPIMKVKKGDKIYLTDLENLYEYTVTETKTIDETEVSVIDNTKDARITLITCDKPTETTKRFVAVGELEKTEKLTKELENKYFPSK
T1 sequence (P13128 25-529): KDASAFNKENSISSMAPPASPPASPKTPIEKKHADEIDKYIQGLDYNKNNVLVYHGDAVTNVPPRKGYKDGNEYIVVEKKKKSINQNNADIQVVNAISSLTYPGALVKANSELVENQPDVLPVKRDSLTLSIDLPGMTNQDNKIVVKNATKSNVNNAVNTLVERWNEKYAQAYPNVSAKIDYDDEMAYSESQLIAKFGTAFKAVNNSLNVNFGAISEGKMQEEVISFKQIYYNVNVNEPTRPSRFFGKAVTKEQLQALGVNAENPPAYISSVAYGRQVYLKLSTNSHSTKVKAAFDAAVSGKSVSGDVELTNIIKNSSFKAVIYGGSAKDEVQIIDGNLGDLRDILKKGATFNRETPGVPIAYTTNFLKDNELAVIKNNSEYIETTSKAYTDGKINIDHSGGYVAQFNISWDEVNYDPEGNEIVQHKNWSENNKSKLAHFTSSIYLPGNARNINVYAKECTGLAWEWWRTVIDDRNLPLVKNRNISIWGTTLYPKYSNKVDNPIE
T3 sequence (Q8Y8H5 71-222 I175A): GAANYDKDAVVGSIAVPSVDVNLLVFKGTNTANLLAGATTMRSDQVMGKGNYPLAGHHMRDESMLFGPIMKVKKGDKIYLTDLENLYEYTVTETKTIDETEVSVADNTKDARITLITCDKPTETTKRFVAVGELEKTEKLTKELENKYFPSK
T4 sequence (Q8Y8H5 71-222 V201A): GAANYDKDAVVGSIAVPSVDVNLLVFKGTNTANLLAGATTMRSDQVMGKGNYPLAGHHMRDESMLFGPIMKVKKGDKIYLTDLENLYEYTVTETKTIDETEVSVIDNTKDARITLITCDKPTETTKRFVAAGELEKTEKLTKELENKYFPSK
T2 sequence (Q8Y8H5 71-222 T162A): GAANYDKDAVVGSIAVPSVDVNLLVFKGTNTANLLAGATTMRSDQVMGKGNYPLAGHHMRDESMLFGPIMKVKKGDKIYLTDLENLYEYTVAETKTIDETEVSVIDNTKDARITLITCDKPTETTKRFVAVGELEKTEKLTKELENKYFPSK

O=c1c(O)c(-c2ccc(O)c(O)c2)oc2cc(O)ccc12 [fisetin]
protection against L. monocytogenes infection in vitro and in vivo (L. monocytogenes [1]; inhibitor of LLO, ref Wang et al., 2015a): robust protection

O=C(/C=C/c1ccccc1)c1ccccc1 [chalcone]
protection against L. monocytogenes infection in vitro and in vivo (L. monocytogenes [1]; inhibitor of SrtA, ref Li et al., 2016): robust protection

O=C(CCc1ccc(O)cc1)c1c(O)cc(O)cc1O [phloretin]
hemolytic activities of culture supernatants of L. monocytogenes EGDe cells after co-culture (listeriolysin O (LLO); co-culture with phloretin 7.3–58.34 μM, rabbit erythrocytes): dose-dependently decreased
hemolytic activities of bacterial culture supernatants after direct pre-incubation (listeriolysin O (LLO); supernatants pre-incubated with various concentrations of phloretin): did not affect the hemolytic activities
LLO levels in bacterial culture supernatants and cell pellets (LLO): reduced in a concentration-dependent manner
transcription of hly (hly): did not affect the transcription of hly
Kd (T90A): 17.5 µM
Kd (I103A): 17.2 µM
Kd (V129A): 20.1 µM
invasion of EGDeΔsrtA (CFU assay) [2]: no difference was observed
LDH release of EGDe-infected Caco-2 cells [3]: decreased LDH release
cytotoxicity in Caco-2 cells (Caco-2 cells): did not significantly induce cytotoxicity
infected mice that had died by 96 h post-infection (L. monocytogenes [4]; 2 × 10^7 CFUs i.p. per mouse, phloretin 150 mg/kg s.c. 2 h after infection and at 8-h intervals): 25%
gross pathological changes in liver and spleen of infected mice (L. monocytogenes [4]; 48 h post-infection): clearly ameliorated
histopathology (inflammatory lesions) in infected mice (L. monocytogenes [4]; 48 h post-infection, liver and spleen sections): only minor inflammatory lesions
numbers of viable bacteria colonized in the livers and spleens (L. monocytogenes [4]; 48 h post-infection, vs infected mice treated with DMSO): significantly lower
survival rate vs control group treated with DMSO (L. monocytogenes [4]; phloretin 150 mg/kg s.c., 96 h): significantly higher survival rate
survival of mice treated only with phloretin, not infected ([5]; 150 mg/kg s.c. at 8-h intervals, 96 h): all survived
pathological changes in uninfected mice treated with phloretin ([5]; liver and spleen): no pathological changes were observed
MIC (L. monocytogenes EGDe; Listeria monocytogenes): 933 µM (≈ 256 µg/mL)
growth of L. monocytogenes (L. monocytogenes EGDe; at the concentrations required for inhibition of LLO expression and SrtA catalytic activity, OD 600 nm): not apparently affected
IC50 (WT-SrtA [6]): 37.2 µM
Kd (WT-SrtA [7]): 12.6 µM
